According to patent publication US9457095B2, “Pharmaceutical compositions providing enhanced drug concentrations” (Bend Research, Inc., priority 1999, dated 2016):
Values after ≈ are worked out from the molar mass of the structure shown. Structures can show the parent of a compound that is named as a salt. Blank lines part the entries; values can stand above or below the compound they belong to.

Legend:
Type in all cases: physicochemical
[1] = solubility of Drug 6 salt forms; conditions: Drug 6 salts
[2] = microcentrifuge dissolution, sertraline lactate (Drug 2) with polymer
Method: For these tests, 1.8 mg sertraline lactate was added to 0.9 mL HPLC water in each of six microcentrifuge tubes. For Control 4, 0.9 mL 2×PBS (PBS solution with 2 times the standard buffer salt concentration), adjusted to pH 8.0, was added to Tubes 1 and 2. For Example 10, 0.9 mL 2×PBS (pH 8.0) containing 3.6 mg of HPMCAS-MF was added to Tubes 3 and 4. For Example 11, 0.9 mL 2×PBS (pH 8.0) containing 3.6 mg of CAT was added to Tubes 5 and 6.
Dissolution performance was measured at 37° C. using the microcentrifuge method described in Example 1. Samples were taken after 4, 10, 20, 40, 90, and 180 minutes as described in Example 1. Samples were diluted in 35% H2O/65% ACN (vol./vol.), and analyzed by HPLC. The mobile phase was 35 vol. % 0.025 M triethylamine with 0.05M acetic acid in HPLC water in ACN. The analytical column used was a Phenomenex ODS 20, and the drug concentration was determined using diode array detection at 230 nm.

[3] = microcentrifuge dissolution, ziprasidone mesylate (Drug 3) with polymer; conditions: for [Drug 3]: PBS, 37° C.
Method: Ziprasidone mesylate (Drug 3) is the soluble salt form of the antipsychotic drug ziprasidone. For these tests, 0.5 mg drug was added to each of 8 microcentrifuge tubes. For Control 5, no concentration-enhancing polymer was added to Tubes 1 and 2. For Example 12, 1.0 mg of CAT was added to Tubes 3 and 4. For Example 13, 1.0 mg of CAP (NF grade from Eastman Fine Chemical of Kingsport, Tenn.) was added to Tubes 5 and 6. For Example 14, 1.0 mg HPMCP (NF grade from Eastman Chemical Company) was added to Tubes 7 and 8.
Dissolution performance was measured at 37° C. using the microcentrifuge method described in Example 1. For each test, 0.616 mg of Drug 3 was added to the microcentrifuge tube. At time 0, 1.8 mL PBS was added to each of the tubes. Drug concentration was measured using HPLC, with a mobile phase of 60 vol. % 0.02 M KH2PO4, pH 3.0 in ACN, and diode array detection at 254 nm.

[4] = solubility of sertraline forms; conditions: for solubility: sertraline forms, pH 3, expressed as the free base
[5] = microcentrifuge dissolution, amorphous Drug 1 with varying ratios of HPMCAS-MF; conditions: 15 mg amorphous Drug 1 in 1.5 mL PBS, 37° C.
Method: Amorphous Drug 1 (15 mg) was added to microcentrifuge tubes containing 1.5 mL of PBS solution and varying concentrations of HPMCAS-MF. Dissolution performance was measured at 37° C. using the microcentrifuge method described in Example 1. Drug concentration was measured at 1.5 hours and at 20 hours for each polymer concentration.

[6] = Cmax of Drug 1 forms in MFD solution; conditions: pH 6.5 MFD solution
[7] = solubility of Drug 4 polymorphs in water; conditions: Drug 4 mesylate polymorph

Compound: 4-[3-[4-(2-methylimidazol-1-yl) phenylthio] phenyl]-3,4,5,6-tetrahydro-2H-pyran-4-carboxamide hemifumarate [Drug 6 hydrochloride salt]
solubility ([1]; pH 4): 0.37 mgA/mL | solubility ([1]; pH 7): 0.0009 mgA/mL

Compound: 4-[3-[4-(2-methylimidazol-1-yl) phenylthio] phenyl]-3,4,5,6-tetrahydro-2H-pyran-4-carboxamide hemifumarate [Drug 6]
solubility ([1]; pH 4, listed as Drug 6 mesylate salt): 3.7 mgA/mL | solubility ([1]; pH 7, listed as Drug 6 mesylate salt): 0.0042 mgA/mL

Compound: CN[C@H]1CC[C@@H](c2ccc(Cl)c(Cl)c2)c2ccccc21 [Control 4]
[Drug 2] ([2]; 10 mins): 89 µg/mL | [Drug 2] ([2]; 20 mins): 72 µg/mL | [Drug 2] ([2]; 40 mins): 67 µg/mL | [Drug 2] ([2]; 90 mins): 63 µg/mL | [Drug 2] ([2]; 180 mins): 60 µg/mL | AUC180 ([2]; Drug 2 dissolution): 11,700 min * μg/mL | Cmax ([2]; Drug 2 dissolution): 101 µg/mL | [Drug 2] ([2]; PBS (2x PBS pH 8.0 added), 37° C., 4 mins): 101 µg/mL

Compound: CN[C@H]1CC[C@@H](c2ccc(Cl)c(Cl)c2)c2ccccc21 [Drug 2, sertraline lactate]
solubility [4]: 256000 µg/mL

Compound: CN[C@H]1CC[C@@H](c2ccc(Cl)c(Cl)c2)c2ccccc21 [Drug 5, sertraline HCl]
solubility ([4]; aqueous solution, aqueous buffer, read-out: solubility): 3000 µg/mL | solubility thermodynamic ([4]; distilled water, aqueous buffer, thermodynamic from solid, sertraline hydrochloride with or without citric acid, pH 3, read-out: equilibrium solubility): 3000 µg/mL

Continued, values first:

AUC180 ([3]; Drug 3 dissolution in PBS): 1000 µg·min/mL | Cmax ([3]; Drug 3 dissolution in PBS): 11 µg/mL | [Drug 3] ([3]; 10 mins): 3 µg/mL | [Drug 3] ([3]; 20 mins): 11 µg/mL | [Drug 3] ([3]; 40 mins): 6 µg/mL | [Drug 3] ([3]; 90 mins): 7 µg/mL | [Drug 3] ([3]; 180 mins): 1 µg/mL
Compound: CS(=O)(=O)O.O=C1Cc2cc(CCN3CCN(c4nsc5ccccc45)CC3)c(Cl)cc2N1 [Control 5]

[Drug] 1.5 hr. [5]: 224 µg/mL | Cmax ([6]; listed as amorphous form): 270 µg/mL
Compound: O=C(N[C@@H](Cc1ccccc1)[C@@H](O)C(=O)N1C[C@@H](O)[C@@H](O)C1)c1cc2cc(Cl)ccc2[nH]1 [amorphous Drug 1, 5-chloro-1H-indole-2-carboxylic acid [(1 S)-benzyl-3-((3R, 4S)-dihydroxypyrroldin-1-yl-)-(2R)-hydroxy-3-oxypropyl] amide]

Cmax ([6]; listed as crystalline form): 160 µg/mL
Compound: O=C(N[C@@H](Cc1ccccc1)[C@@H](O)C(=O)N1C[C@@H](O)[C@@H](O)C1)c1cc2cc(Cl)ccc2[nH]1 [crystalline Drug 1, 5-chloro-1H-indole-2-carboxylic acid [(1 S)-benzyl-3-((3R, 4S)-dihydroxypyrroldin-1-yl-)-(2R)-hydroxy-3-oxypropyl] amide]

solubility ([7]; read-out: solubility in water): 102 µg/mL (≈ 259 µM)
Compound: C#Cc1cccc(Nc2ncnc3cc(OCCOC)c(OCCOC)cc23)c1 [“A” form, [6,7-Bis(2-methoxy-ethoxy)-quinazolin-4-yl]-(3-ethynyl-phenyl)amine]

solubility ([7]; read-out: solubility): 28 µg/mL (≈ 71.2 µM)
Compound: C#Cc1cccc(Nc2ncnc3cc(OCCOC)c(OCCOC)cc23)c1 [“C” form, [6,7-Bis(2-methoxy-ethoxy)-quinazolin-4-yl]-(3-ethynyl-phenyl)amine]
